Where two headings read alike, the source gives them in different places.
How the values were obtained:
Assay in all cases: Glasshouse assay for herbicidal activity (pre- and post-emergence), percentage phytotoxicity
Type in all cases: in vivo
Lolium perenne (LOLPE) = conditions: Lolium perenne, rate 250 g/ha
Method in brief: (§1)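 Seeds were sown in standard soil in pots and grown one day (pre-emergence) or about 12 days (post-emergence) before herbicide application. Plants were kept at 24/18 °C (warm-climate) or 20/16 °C (cool-climate) day/night, 16 h light, 65% humidity, watered twice daily, and damage was scored visually at 15 DAA (POST) or 20 DAA (PRE).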

[1] = system: Echinochloa crus-galli (ECHCG); conditions: Echinochloa crus-galli, rate 250 g/ha
Method in brief: as §1

[2] = system: Alopecurus myosuroides (ALOMY); conditions: Alopecurus myosuroides, rate 250 g/ha
Method in brief: as §1

Avena fatua (AVEFA) = conditions: Avena fatua, rate 250 g/ha
Method in brief: as §1

[3] = post-emergence, 360 h, POST-emergence, visual score 15 DAA (100%=total damage, 0%=no damage), read-out: Post-emergence herbicidal activity (percentage phytotoxicity) LOLPE POST
[4] = pre-emergence, 480 h, PRE-emergence, visual score 20 DAA (100%=total damage, 0%=no damage), read-out: Pre-emergence herbicidal activity (percentage phytotoxicity) LOLPE PRE
[5] = post-emergence, 360 h, POST-emergence, visual score 15 DAA (100%=total damage, 0%=no damage), read-out: Post-emergence herbicidal activity (percentage phytotoxicity) ECHCG POST
[6] = pre-emergence, 480 h, PRE-emergence, visual score 20 DAA (100%=total damage, 0%=no damage), read-out: Pre-emergence herbicidal activity (percentage phytotoxicity) ECHCG PRE
[7] = post-emergence, 360 h, POST-emergence, visual score 15 DAA (100%=total damage, 0%=no damage), read-out: Post-emergence herbicidal activity (percentage phytotoxicity) ALOMY POST
[8] = pre-emergence, 480 h, PRE-emergence, visual score 20 DAA (100%=total damage, 0%=no damage), read-out: Pre-emergence herbicidal activity (percentage phytotoxicity) ALOMY PRE
[9] = post-emergence, 360 h, POST-emergence, visual score 15 DAA (100%=total damage, 0%=no damage), read-out: Post-emergence herbicidal activity (percentage phytotoxicity) AVEFA POST
[10] = pre-emergence, 480 h, PRE-emergence, visual score 20 DAA (100%=total damage, 0%=no damage), read-out: Pre-emergence herbicidal activity (percentage phytotoxicity) AVEFA PRE

SMILES	pest or weed control at 250 g/ha (Lolium perenne (LOLPE); [3]) [%]	pest or weed control at 250 g/ha (Lolium perenne (LOLPE); [4]) [%]	pest or weed control at 250 g/ha [1, 5] [%]	pest or weed control at 250 g/ha [1, 6] [%]	pest or weed control at 250 g/ha [2, 7] [%]	pest or weed control at 250 g/ha [2, 8] [%]	pest or weed control at 250 g/ha (Avena fatua (AVEFA); [9]) [%]	pest or weed control at 250 g/ha (Avena fatua (AVEFA); [10]) [%]
Cc1cc(-n2cc(Cl)cn2)cc(C)c1C1C(=O)CC(CC(=O)N(C)C(C)(C)C)C1=O (stereo not drawn) [Compound B229]	70	90	100	100	80	90	80	90
C#CCN(C)C(=O)CC1CC(=O)C(c2c(C)cc(-n3cc(Cl)cn3)cc2C)C1=O (stereo not drawn) [Compound B230]	90	90	100	100	100	90	100	90
CCc1cc(-n2cc(Cl)cn2)cc(C)c1C1C(=O)CC(CC(=O)NCc2cccc(Cl)c2)C1=O (stereo not drawn) [Compound B231]	90	80	90	80	90	50	100	20
CCc1cc(-n2cc(Cl)cn2)cc(C)c1C1C(=O)CC(CC(=O)NCc2cccc(F)c2)C1=O (stereo not drawn) [Compound B232]	100	90	100	90	100	90	100	70
CCc1cc(-n2cc(Cl)cn2)cc(C)c1C1C(=O)CC(CC(=O)NCc2ccc(OC)cc2)C1=O (stereo not drawn) [Compound B233]	70	70	100	70	60	70	70	60
CCc1cc(-n2cc(Cl)cn2)cc(C)c1C1C(=O)CC(CC(=O)NCc2ccc(C#N)cc2)C1=O (stereo not drawn) [Compound B234]	80	70	90	70	90	60	100	80
CCc1cc(-n2cc(Cl)cn2)cc(C)c1C1C(=O)CC(CC(=O)NC(C)C)C1=O (stereo not drawn) [Compound B235]	100	100	100	100	100	100	100	100
C=CCNC(=O)CC1CC(=O)C(c2c(C)cc(-n3cc(Cl)cn3)cc2CC)C1=O (stereo not drawn) [Compound B236]	100	90	100	90	100	90	100	90
CCc1cc(-n2cc(Cl)cn2)cc(C)c1C1C(=O)CC(CC(=O)NCC2CC2)C1=O (stereo not drawn) [Compound B237]	100	90	100	90	100	100	100	90
CCc1cc(-n2cc(Cl)cn2)cc(C)c1C1C(=O)CC(CC(=O)N(C)CC)C1=O (stereo not drawn) [Compound B238]	100	100	100	100	100	100	100	100
CCc1cc(-n2cc(Cl)cn2)cc(C)c1C1C(=O)CC(CC(=O)N(C)C(C)(C)C)C1=O (stereo not drawn) [Compound B239]	100	100	100	100	90	100	100	90
C#CCN(C)C(=O)CC1CC(=O)C(c2c(C)cc(-n3cc(Cl)cn3)cc2CC)C1=O (stereo not drawn) [Compound B240]	100	90	100	90	100	100	100	90
C/C=C/c1cc(C)c(C2C(=O)CC(CC(=O)NCc3cccc(Cl)c3)C2=O)c(C)c1 (stereo not drawn) [Compound B241]	90	80	100	70	80	60	100	50
C/C=C/c1cc(C)c(C2C(=O)CC(CC(=O)NCc3cccc(F)c3)C2=O)c(C)c1 (stereo not drawn) [Compound B242]	100	0	100	0	90	0	90	0
C/C=C/c1cc(C)c(C2C(=O)CC(CC(=O)NCc3ccc(OC)cc3)C2=O)c(C)c1 (stereo not drawn) [Compound B243]	70	0	90	0	80	0	50	0
C/C=C/c1cc(C)c(C2C(=O)CC(CC(=O)NCc3ccc(C#N)cc3)C2=O)c(C)c1 (stereo not drawn) [Compound B244]	60	0	90	0	0	0	80	0
C/C=C/c1cc(C)c(C2C(=O)CC(CC(=O)NC(C)C)C2=O)c(C)c1 (stereo not drawn) [Compound B245]	100	90	100	90	100	100	100	90
C=CCNC(=O)CC1CC(=O)C(c2c(C)cc(/C=C/C)cc2C)C1=O (stereo not drawn) [Compound B246]	100	90	100	70	100	60	100	50
C/C=C/c1cc(C)c(C2C(=O)CC(CC(=O)NCC3CC3)C2=O)c(C)c1 (stereo not drawn) [Compound B247]	100	80	100	60	100	90	100	80
C/C=C/c1cc(C)c(C2C(=O)CC(CC(=O)N(C)CC)C2=O)c(C)c1 (stereo not drawn) [Compound B248]	100	80	100	60	100	50	100	50
C/C=C/c1cc(C)c(C2C(=O)CC(CC(=O)N(C)C(C)(C)C)C2=O)c(C)c1 (stereo not drawn) [Compound B249]	60	70	80	80	70	80	70	30

— US10206394B2, “Herbicidal compounds” (Syngenta Participations AG, priority 2014, dated 2019)
